The test system of one data set is S. typhimurium TA100. Particulars: for Mutagenic index TA100: reference mutagen; for reversion of mutations in TA100: 40 μg/mL, presence and absence of the microsomal fraction. Here is the method:
(§1) Potential mutagenicity or pro-mutagenicity of non-heated and heated ST, ST-LA, and ST-OA was determined using the bacterial reverse mutation assay (Ames test) with Salmonella enterica subsp. enterica ser. typhimurium tester strains TA98, TA100, and TA102, which were obtained from the Polish Collection of Microorganisms of the Institute of Immunology and Experimental Therapy of the Polish Academy of Sciences in Wroclaw.
(§2) Mutagenicity experiments were performed in the liquid pre-incubation assay, without and with metabolic activation by supplying Aroclor 1254-induced rat liver microsomal fraction (S9, Sigma-Aldrich) with NADP and cofactors for NADPH-supported oxidation, according to the procedure described by Mortelmans and Zeiger[39]. Briefly, reaction mixtures, consisting of 12-h bacterial culture, non-heated and heated compound (ST, ST-LA, ST-OA) at a concentration of 40 μg, 0.2 M phosphate buffer (pH 7.4), and alternatively S9 activating mixture, were pre-incubated at 37 °C for 20 min. […] The mutagen, 2-aminoanthracene (5 μg) (Sigma-Aldrich), was a positive control in pro-mutagenicity experiments. After pre-incubation, the reaction mixtures were added to the top agar supplemented with traces of histidine and biotin and poured onto the plates covered with minimum glucose agar. The cultures were incubated for 48 h at 37 °C, and the number of revertants (His+) colonies was counted manually.
(§3) Compounds with MI ≥ 2 can be recognized as potentially mutagenic.

The subject of another data set is S. typhimurium TA102. Nature of the data set: Bacterial reverse mutation assay (Ames test), strain TA102. Particulars: for effect on TA102 revertants: 40 μg/mL, regardless of metabolic activation (+/− S9). The method, then:
as §1, §2, §3
For orientation: The Ames test uses bacterial strains that need an amino acid and regain growth without it when mutated back.

The next data set deals with S. typhimurium TA98. The data set is described as follows: Bacterial reverse mutation assay (Ames test), strain TA98. The following applies: for reversion of mutations in TA98: 40 μg/mL, presence and absence of the microsomal fraction. Here is the method:
as §1, §2, §3

Data set [1] deals with CCD 841 CoN cells. The data set is described as follows: DNA damage detection, comet assay (SCGE). The following applies: reference oxidant, 100 μM, 30 min. The format is cell-based, human. The method, then: The cells were grown at 6-well plates at the established density and standard culture conditions and exposed to the non-heated and heated ST, ST-OA, and ST-LA for 48 h. The non-treated cells and cells treated with H2O2 (100 μM, 30 min) to induce oxidative DNA damage constituted the negative and positive controls, respectively. After treatment, cells were analyzed for DNA damage using a single cell gel electrophoresis (SCGE) called comet assay, described in detail previously. Briefly, harvested cells suspended in low melting point agarose were put onto microscope slides pre-coated with normal melting point agarose and subjected sequentially to lysis, alkaline electrophoresis (pH > 13), and neutralization ([…]). The cells were stained with SYBRGold (Molecular Probes), viewed under a fluorescence microscope (Axiovert 200, Zeiss, Carl Zeiss, Gottingen, Germany), and analyzed using CometScore™ software (TriTek Corp., Sumerduck, VA, USA). At least 100 cells were analyzed on a microscope slide; 300 cells were considered for DNA damage detection in one sample. Data were expressed as the mean percentage of DNA content in the comet tail. […] Based on the comets' categorization, the total comet score (TCS) was calculated according to the formula: TCS = 0(n) + 1(n) + 2(n) + 3(n) + 4(n), where “n” is the number of cells in each comet class (0–4)[45].

In data set [2] the test system is caspase 3/7 activity in CCD 841 CoN cells. The data set is described as follows: Caspase 3/7 activity assay (APO-One Homogeneous). Type of data set: cell-based, human. Particulars: 40 μg/mL, 24 h. The method, then:
CCD 841 CoN cells were grown in black 96-well plates at an initial cell density of 2 × 10^4 cells/cm^2 for 24 h under standard culture conditions. The cell cultures were treated for 24 h with ST, ST-OA, and ST-LA at a 40 μg/mL dose. After treatment, caspase-3/7 activity was determined using the APO-One Homogeneous Caspase-3/7 Assay (Promega Corporation, Wisconsin, USA), which is based on the proteolytic cleavage of C-terminal side of aspartate residue in the DEVD peptide substrate by caspase 3/7 into fluorescent rhodamine 110 (R110). Analysis of caspase 3/7 activity was carried out following the manufacturer's instructions. Briefly, the cells after the treatment were incubated at room temperature with Apo-ONE® Caspase-3/7 Reagent—bifunctional cell lysis/caspase activity buffer combined with the pro-fluorescent caspase-3/7 substrate Z-DEVD-R110. After 4-h incubation, fluorescence was measured at an excitation wavelength of 485 nm and an emission wavelength of 530 nm using a Tecan M200 Infinite microplate reader. Data obtained were normalized to cellular protein content, quantified by BCA assay (Pierce® BCA Protein Assay Kit, Thermo Scientific Inc., USA) according to the manufacturer's protocol.

Data set [3] relates to CCD 841 CoN cells. Nature of the data set: DNA synthesis, BrdU incorporation (Cell Proliferation ELISA). Type of data set: cell-based, human. Particulars: 10-40 μg/mL, 48 h. The method, then:
CCD 841 CoN cells were grown in black 96-well plates at an initial cell density of 2 × 10^4 cells/cm^2 for 24 h under standard culture conditions. The cells were treated with ST (2.5, 5, 10, 20, and 40 μg/mL) and its esters ST-OA and ST-LA (10, 20, and 40 μg/mL) for 48 h. DNA synthesis was measured by incorporating thymidine analog 5-bromo-2′-deoxyuridine (BrdU) into newly synthesized DNA using the Cell Proliferation ELISA kit according to the protocol recommended by the manufacturer (Roche Diagnostics GmbH, Mannheim, Germany). Briefly, BrdU was added to the treated cells 24 h before the end of the exposure to the ST, ST-OA, and ST-LA (final BrdU concentration of 10 μM). After treatment, BrdU-labeled DNA was denatured (30 min, 20 °C). Then, BrdU was bonded with a peroxidase-conjugated anti-BrdU antibody (90 min, 20 °C) and reacted with the peroxidase substrate. The absorbance measurement was done with a stop solution (1 M H2SO4) at 450 nm with reference wavelength 690 nm using a Tecan M200 Infinite microplate reader.
A general note: Incorporation of labelled thymidine or its analogues reports DNA synthesis.

The test system of a further data set is FHs 74 Int cells. The arrangement: method as in PMID 31883991. The following applies: normal human small intestine cells; cited from earlier work.
Data set [4] is described as follows: Thermo-oxidative treatment at 180 °C for 8 h, degradation of the compound. The format is physicochemical. Particulars: heated at 180 °C for 8 h under oxygen atmosphere. Here is the method:
ST, ST-OA, and ST-LA (50 mg each) were placed separately in glass vials and heated at 180 °C for 8 h under an oxygen atmosphere. After thermo-oxidative treatment, the tested compounds were stored at − 20 °C until chemical and biological analyses. The non-heated and heated ST and its esters were analyzed to detect degradation products and oxyderivatives. Analytical methods were described in the article published previously.

The test system of data set [5] is CCD 841 CoN cells. Nature of the data set: Cell cycle analysis by flow cytometry (propidium iodide). The format is cell-based, human. The following applies: 40 μg/mL, 24 h. Here is the method:
CCD 841 CoN cells were grown in 6-well plates at an initial cell density of 2 × 10^4 cells/cm^2 for 24 h under standard culture conditions. The cells were treated for 24 h with the analyzed compounds at a concentration of 40 μg/mL; the high dose was applied because of the relatively low cytotoxic potential of ST-OA and ST-LA as determined in cytotoxicity studies. In addition, the cells were exposed to 0.05 μM camptothecin (Sigma-Aldrich) as a positive reference compound known to modulate cell cycle progression.
After treatment, the cells were harvested by trypsinization, washed in PBS, and fixed in 70% ethanol. Then, the cells were stained with 50 μg/mL propidium iodide in the presence of 100 μg/mL RNase (Sigma-Aldrich). The sample preparation method and staining protocol were described previously. The cycle phase distribution was analyzed with an Amnis™ FlowSight™ flow cytometer (Luminex Corporation, TX, USA).
(In general: A flow cytometer gives signals particle by particle.)

A further data set relates to THLE-2 cells. More on the design: method as in PMID 31883991. The following applies: normal human liver cells; cited from earlier work.
In data set [6] the test system is CCD 841 CoN cells. The data set is described as follows: MultiTox-Fluor Multiplex Cytotoxicity Assay (live and dead cell fluorescence). Type of data set: cell-based. Particulars: doses up to 40 μg/mL, 48 h. Here is the method: The normal human diploid CCD 841 CoN cell line (ATCC® CRL-1790™) isolated from colon mucosa was obtained from American Type Culture Collection (ATCC, Manassas, VA, USA). Cells were cultured in Dulbecco’s Modified Eagle’s Medium (DMEM, Sigma-Aldrich) supplemented with fetal bovine serum (FBS; Gibco BRL, Grand Island, NY, USA) to a final concentration of 10% and maintained at 37 °C in a humidified atmosphere with 5% CO2.
In the cytotoxicity experiments, CCD 841 CoN cells were seeded in 96-well plates at an initial density of 2.0 × 10^4 cells/cm^2 and incubated for 24 h. […] Control culture contained the vehicle at the amount corresponding to the sample analyzed.
The Multitox-Fluor Multiplex Cytotoxicity Assay (Promega GmbH, Mannheim, Germany) was applied to determine the relative number of live and dead cells in the CCD 841 CoN cell cultures treated with the analyzed compounds. The assay determined live- and dead-cell protease activities using two fluorogenic peptide substrates, cell-permeant (glycyl-phenylalanyl-amino fluorocoumarin; GF-AFC) and cell-impermeant (bis-alanyl-alanyl-phenylalanyl-rhodamine 110; bis-AAF-R110). After treatment, the cells were incubated with GF-AFC and bis-AAF-R110 substrates for 60 min at 37 °C. The live- and dead-cell proteases produced AFC and R110 products, measured using a Tecan M200 Infinite microplate reader (Tecan Group Ltd., Männedorf, Switzerland) at different excitation (400 nm and 485 nm) and emission (505 nm and 520 nm) spectra. The assay was conducted according to the manufacturer’s instructions.

Setting [7] is: with metabolic activation (+ S9), reference mutagen.

Molecules are shown by their SMILES. Read-outs that look alike come from different tables or passages of the source.

Regarding `Nc1ccc2cc3ccccc3cc2c1` [2-Aminoanthracene, 2-aminoanthracene, reference compound], the “Mutagenic index TA100” value in the data set on S. typhimurium TA100 (with metabolic activation (+ S9)) is on record as 2.03. Also, the “Mutagenic index TA102” value in the data set on S. typhimurium TA102 (setting [7]) turned out to be 2.95. Further, the “Mutagenic index TA98” value in the data set with S. typhimurium TA98 (setting [7]) was found to be 6.00.

Turning to `OO` [H2O2, reference compound], in the data set with CCD 841 CoN cells [1], the “total comet score (TCS)” value amounted to 263.1 ± 29.4.

Turning to `[N-]=[N+]=[N-].[Na+]` [Sodium azide, sodium azide, reference compound], the “Mutagenic index TA100” value in the data set on S. typhimurium TA100 (without metabolic activation (− S9), dose printed with the label) was found to be 13.55; in the data set with S. typhimurium TA100 (without metabolic activation (− S9), dose printed with the label, listed as sodium azide) it was 13.6.

`CCCCC/C=C\C/C=C\CCCCCCCC(=O)OC1CCC2(C)C(=CCC3C2CCC2(C)C(C(C)/C=C/C(CC)C(C)C)CCC32)C1` (stereo not shown) [ST-LA, stigmasteryl linoleate]: the “reversion of mutations in TA100” value in the data set on S. typhimurium TA100 is recorded as “did not induce the reversion of mutations”. In addition, the “effect on TA102 revertants” value in the data set with S. typhimurium TA102 is on record as “did not affect the number of TA102 revertants”. In addition, in [2], the “caspase 3/7 activity” value is listed as “slightly increased caspase-3/7 activities”. In the data set on S. typhimurium TA98, the “reversion of mutations in TA98” value is “did not induce the reversion of mutations”. Moreover, the “DNA synthesis inhibition” value in the data set on CCD 841 CoN cells [3] was “not observed”. Also, in the data set with FHs 74 Int cells, the “cytotoxic effects” value is reported as “no cytotoxic effects”. In [4], the “Fatty acid residue depletion (%)” value came to 31.11 ± 3.2% and the “Sterol moiety depletion (%)” value amounted to 71.6 ± 6.6%. In addition, the “subpopulation of dead cells with lower/reduced DNA content” value in the data set on CCD 841 CoN cells [5] is “Slight expanding the cell subpopulation with reduced DNA content”. The “cytotoxic effects” value with THLE-2 cells is “no cytotoxic effects”. Moreover, the “effect on colon cell viability / cytotoxicity” value in the data set on CCD 841 CoN cells [6] is on record as “did not affect colon cell viability”.

As to `CCCCCCCC/C=C\CCCCCCCC(=O)OC1CCC2(C)C(=CCC3C2CCC2(C)C(C(C)/C=C/C(CC)C(C)C)CCC32)C1` (stereo not shown) [ST-OA, stigmasteryl oleate], the “reversion of mutations in TA100” value with S. typhimurium TA100 is listed as “did not induce the reversion of mutations”. The “effect on TA102 revertants” value in the data set with S. typhimurium TA102 is given as “did not affect the number of TA102 revertants”. Further, in data set [2], the “caspase 3/7 activity” value is “slightly increased caspase-3/7 activities”. The “reversion of mutations in TA98” value in the data set with S. typhimurium TA98 is on record as “did not induce the reversion of mutations”. Further, the “DNA synthesis inhibition” value in the data set on CCD 841 CoN cells [3] is reported as “not observed”. For the same compound, in the data set with FHs 74 Int cells, the “cytotoxic effects” value is “no cytotoxic effects”. Also, in [4], the “Fatty acid residue depletion (%)” value is 77.14 ± 5.3% and the “Sterol moiety depletion (%)” value is recorded as 88.8 ± 3.5%. For the same compound, in the data set on CCD 841 CoN cells [5], the “subpopulation of dead cells with lower/reduced DNA content” value was “Slight expanding the cell subpopulation with reduced DNA content”. Besides, the “cytotoxic effects” value in the data set with THLE-2 cells is recorded as “no cytotoxic effects”. For the same compound, the “effect on colon cell viability / cytotoxicity” value in the data set with CCD 841 CoN cells [6] is listed as “did not affect colon cell viability”.

The values are drawn from PMC10151334, “Anti-proliferative potential and oxidative reactivity of thermo-oxidative degradation products of stigmasterol and stigmasteryl esters for human intestinal cells” (Scientific Reports, 2023).
